# Counter-ions that a name gives are not always drawn. Like-named read-outs stand apart in the source and are kept apart here.
# What was measured:
# CYP3A4 = CYP3A4 (Homo sapiens (Human), UniProt P08684); assay: Cytochrome oxidase P450 inhibition study, CYP3A4; format: in vitro ADME; details: human liver microsomes
# Description: (§1) LC-MS/MS methods were used to evaluate the inhibitory effects of compounds on CYP2C19, 2D6 and 3A4 subtypes. In this method, the test compound was mixed with a solution of human liver microsomes containing CYP model substrates, and incubated together under the addition of NADPH, then the inhibitory IC50 of the compound on CYP2C19, 2D6 and 3A4 was calculated by measuring the amount of metabolites of the model substrate in the reaction solution. The specific experimental method is as follows:
# (§2) Compounds to be tested were prepared as stock solutions at 10 mM concentration with DMSO and then diluted to 4 mM with acetonitrile solution. At the same time, the corresponding reference inhibitor solutions for CYP subtypes were prepared, for example, the reference inhibitor was Ketoconazole, then these two compounds were prepared separately ([…] of inhibitor DMSO stock solution+[…] of acetonitrile), and the samples prepared under the above conditions were at 400× concentration. Then, the above solution was 3-fold diluted with DMSO/acetonitrile mixture (v/v: 40/60) to prepare the final test solution, and seven concentration points were set for each test compound, and the initial test final concentration was 10 μM. NADPH, CYP enzyme model substrate and human liver microsome solution were diluted to appropriate concentrations with pre-warmed potassium phosphate buffer (0.1 M, pH 7.4), respectively. The human liver microsome solution was purchased from BD Gentest (20 mg/mL, Corning, article number #452161).
# […] of human liver microsome solution (0.2 mg/mL) was added to each well containing the test compound in the 96-well plate, and then 2 mL of the final test sample of test compounds prepared by serial dilution as described above was added thereto; for each well corresponding to the reference inhibitors, […] of human liver microsome solution (0.2 mg/mL) and 1 mL of the final test sample were added. […] of the prepared corresponding model substrate was dispensed into a 96-well plate, and the microsome solution was mixed evenly, then 30 mL of the test compound/reference inhibitor-human liver microsome mixture was taken and transferred to the 96-well plate containing the substrate, and the mixture was mixed well and preheated at 37° C. for 5 minutes, then […] of 8 mM NADPH solution preheated at 37° C. was added thereto to start the reaction. A duplicate well control and a blank control without the addition of test substances were set at the same time. The 96-well plate containing a total volume of […] of reaction solution was incubated at 37° C. After the incubation, 120 μL of cold acetonitrile solution containing internal standard was added to each well to terminate the reaction, and then the 96-well plate was shaked on a microplate shaker for 5 minutes (600 rpm/min), and put into a centrifuge and centrifuged for 20 minutes at 6000 rpm, 4° C. Then 40 μL of supernatant from each well was transferred to another 96-well plate, and 80 μL of ultrapure water was added to each well, put into a shaker and mixed for 5 minutes (600 rpm/min), and centrifuged at 6000 rpm, 4° C., for 20 minutes. Then LC-MS/MS detection was performed. The inhibition rate was determined by comparing the amount of model substrate metabolites at each test concentration without test substance addition, in the GraphPad Prism 5.0 software, the logarithm of the test concentration was used as the abscissa and the inhibition rate was used as the ordinate to perform a linear regression (Sigmoidal (non-linear) dose-response model) analysis to obtain the IC50 value of the test compound.
# ATR/ATRIP kinase = ATR/ATRIP kinase (Homo sapiens (Human), UniProt Q13535); assay: ATR enzyme assay (HTRF, phosphorylation of substrate protein P53); format: biochemical; details: substrate P53, TR-FRET
# Description: In this experiment, the phosphorylation level of substrate protein P53 (Eurofins, 14-952) was detected by HTRF technology to measure the activity of ATR/ATRIP (Eurofins, 14-953) kinase. Reaction buffer (25 mM HEPES pH 8.0, 0.01% Brij-35, 1% Glycerol, 5 mM DTT, 1 mg/mL BSA), termination buffer (12.5 mM HEPES pH 8.0, 0.005% Brij-35, 0.5% Glycerol, 250 mM EDTA) and assay buffer (50 mM HEPES pH 7.0, 150 mM NaCl, 267 mM KF, 0.1% sodium cholate, 0.01% Tween 20) were prepared in advance. ATR/ATRIP was diluted with reaction buffer to a working solution of 2 ng/μL, and the substrate protein P53 was diluted with reaction buffer to a working solution of 80 nM, and 4 nM of ATP (Sigma, A2383) working solution (containing 40 mM MnCl2) was prepared with reaction buffer. The compound was 3-fold diluted with DMSO, then diluted with reaction buffer into a working solution, then added to a 384-well plate at 2.5 μL/well, and centrifuged at 1500 rpm for 40 s. Then 2.5 μL of ATR/ATRIP working solution, P53 working solution and ATP working solution were added into the 384-well plate, centrifuged at 1500 rpm for 40 s and reacted at room temperature for 30 minutes. After the reaction was completed, 5 μL of termination buffer was added to each well, and centrifuged at 1500 rpm for 40 s. Antibody working solution containing 0.083 μg/mL anti-phospho-p53 (Ser15)-K (CisBio, cat. 61P08KAE) and 5 μg/mL anti-GST-d2 (CisBio, cat. 61GSTDLA) was prepared with assay buffer and added to the 384-well plate at 5 μL/well, then centrifuged at 1500 rpm for 40 s and reacted overnight at room temperature. Microplate reader (Tecan, Infinite M1000 Pro) was used to detect TR-FRET, and the data were analyzed with Graphpad software, and the four-parameter equation was used to fit the curve and calculate the IC50 value of the inhibitor (Table 1).
# CYP2D6 = CYP2D6 (Homo sapiens (Human), UniProt P10635); assay: Cytochrome oxidase P450 inhibition study, CYP2D6; format: in vitro ADME; details: human liver microsomes; read-out: IC50 2D6
# Description: as §1
# as §2, with “NADPH, CYP enzyme model substrate and human liver microsome solution were diluted to appropriate concentrations with pre-warmed potassium phosphate buffer (0.1 M, pH 7.4), respectively. The human liver microsome solution was purchased from BD Gentest (20 mg/mL, Corning, article number #452161).” left out
# […] of human liver microsome solution (0.2 mg/mL) was added to each well containing the test compound in the 96-well plate, and then 2 mL of the final test sample of test compounds prepared by serial dilution as described above was added thereto; for each well corresponding to the reference inhibitors, […] of human liver microsome solution (0.2 mg/mL) and 1 mL of the final test sample were added. […] The inhibition rate was determined by comparing the amount of model substrate metabolites at each test concentration without test substance addition, in the GraphPad Prism 5.0 software, the logarithm of the test concentration was used as the abscissa and the inhibition rate was used as the ordinate to perform a linear regression (Sigmoidal (non-linear) dose-response model) analysis to obtain the IC50 value of the test compound.
# [1] = substrate Midazolam, read-out: IC50 3A4 (Midazolam)
# [2] = substrate Testosterone, read-out: IC50 3A4 (Testosterone)
# Chain of CYP3A4 (P08684 whole entry): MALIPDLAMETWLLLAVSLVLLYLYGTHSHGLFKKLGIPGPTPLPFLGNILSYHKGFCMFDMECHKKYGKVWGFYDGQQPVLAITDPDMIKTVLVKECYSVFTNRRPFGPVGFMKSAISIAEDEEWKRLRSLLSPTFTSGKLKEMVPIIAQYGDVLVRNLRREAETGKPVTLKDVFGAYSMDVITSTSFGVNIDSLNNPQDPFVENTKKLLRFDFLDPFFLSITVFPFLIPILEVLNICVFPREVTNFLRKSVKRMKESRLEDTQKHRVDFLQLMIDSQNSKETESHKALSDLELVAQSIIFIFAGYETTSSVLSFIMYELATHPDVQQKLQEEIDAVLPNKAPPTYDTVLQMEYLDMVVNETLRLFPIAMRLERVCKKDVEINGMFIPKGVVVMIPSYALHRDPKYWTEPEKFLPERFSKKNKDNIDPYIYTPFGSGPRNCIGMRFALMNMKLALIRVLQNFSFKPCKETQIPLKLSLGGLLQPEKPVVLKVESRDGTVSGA
# Chain of CYP2D6 (P10635 whole entry): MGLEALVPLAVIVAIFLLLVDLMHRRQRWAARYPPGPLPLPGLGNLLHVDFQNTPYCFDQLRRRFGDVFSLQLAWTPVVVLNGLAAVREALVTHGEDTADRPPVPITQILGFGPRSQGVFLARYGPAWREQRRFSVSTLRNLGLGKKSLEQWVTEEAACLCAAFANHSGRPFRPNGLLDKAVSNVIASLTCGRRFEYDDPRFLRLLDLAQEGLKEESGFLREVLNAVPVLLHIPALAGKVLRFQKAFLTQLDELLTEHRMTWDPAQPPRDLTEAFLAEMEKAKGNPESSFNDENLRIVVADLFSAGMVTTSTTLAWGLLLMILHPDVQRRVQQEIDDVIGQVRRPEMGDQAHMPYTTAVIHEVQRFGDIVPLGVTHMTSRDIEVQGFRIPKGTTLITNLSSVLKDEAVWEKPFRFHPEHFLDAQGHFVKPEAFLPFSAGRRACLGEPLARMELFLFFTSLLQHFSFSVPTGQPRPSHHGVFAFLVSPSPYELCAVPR
# Chain of ATR/ATRIP kinase (Q13535 whole entry): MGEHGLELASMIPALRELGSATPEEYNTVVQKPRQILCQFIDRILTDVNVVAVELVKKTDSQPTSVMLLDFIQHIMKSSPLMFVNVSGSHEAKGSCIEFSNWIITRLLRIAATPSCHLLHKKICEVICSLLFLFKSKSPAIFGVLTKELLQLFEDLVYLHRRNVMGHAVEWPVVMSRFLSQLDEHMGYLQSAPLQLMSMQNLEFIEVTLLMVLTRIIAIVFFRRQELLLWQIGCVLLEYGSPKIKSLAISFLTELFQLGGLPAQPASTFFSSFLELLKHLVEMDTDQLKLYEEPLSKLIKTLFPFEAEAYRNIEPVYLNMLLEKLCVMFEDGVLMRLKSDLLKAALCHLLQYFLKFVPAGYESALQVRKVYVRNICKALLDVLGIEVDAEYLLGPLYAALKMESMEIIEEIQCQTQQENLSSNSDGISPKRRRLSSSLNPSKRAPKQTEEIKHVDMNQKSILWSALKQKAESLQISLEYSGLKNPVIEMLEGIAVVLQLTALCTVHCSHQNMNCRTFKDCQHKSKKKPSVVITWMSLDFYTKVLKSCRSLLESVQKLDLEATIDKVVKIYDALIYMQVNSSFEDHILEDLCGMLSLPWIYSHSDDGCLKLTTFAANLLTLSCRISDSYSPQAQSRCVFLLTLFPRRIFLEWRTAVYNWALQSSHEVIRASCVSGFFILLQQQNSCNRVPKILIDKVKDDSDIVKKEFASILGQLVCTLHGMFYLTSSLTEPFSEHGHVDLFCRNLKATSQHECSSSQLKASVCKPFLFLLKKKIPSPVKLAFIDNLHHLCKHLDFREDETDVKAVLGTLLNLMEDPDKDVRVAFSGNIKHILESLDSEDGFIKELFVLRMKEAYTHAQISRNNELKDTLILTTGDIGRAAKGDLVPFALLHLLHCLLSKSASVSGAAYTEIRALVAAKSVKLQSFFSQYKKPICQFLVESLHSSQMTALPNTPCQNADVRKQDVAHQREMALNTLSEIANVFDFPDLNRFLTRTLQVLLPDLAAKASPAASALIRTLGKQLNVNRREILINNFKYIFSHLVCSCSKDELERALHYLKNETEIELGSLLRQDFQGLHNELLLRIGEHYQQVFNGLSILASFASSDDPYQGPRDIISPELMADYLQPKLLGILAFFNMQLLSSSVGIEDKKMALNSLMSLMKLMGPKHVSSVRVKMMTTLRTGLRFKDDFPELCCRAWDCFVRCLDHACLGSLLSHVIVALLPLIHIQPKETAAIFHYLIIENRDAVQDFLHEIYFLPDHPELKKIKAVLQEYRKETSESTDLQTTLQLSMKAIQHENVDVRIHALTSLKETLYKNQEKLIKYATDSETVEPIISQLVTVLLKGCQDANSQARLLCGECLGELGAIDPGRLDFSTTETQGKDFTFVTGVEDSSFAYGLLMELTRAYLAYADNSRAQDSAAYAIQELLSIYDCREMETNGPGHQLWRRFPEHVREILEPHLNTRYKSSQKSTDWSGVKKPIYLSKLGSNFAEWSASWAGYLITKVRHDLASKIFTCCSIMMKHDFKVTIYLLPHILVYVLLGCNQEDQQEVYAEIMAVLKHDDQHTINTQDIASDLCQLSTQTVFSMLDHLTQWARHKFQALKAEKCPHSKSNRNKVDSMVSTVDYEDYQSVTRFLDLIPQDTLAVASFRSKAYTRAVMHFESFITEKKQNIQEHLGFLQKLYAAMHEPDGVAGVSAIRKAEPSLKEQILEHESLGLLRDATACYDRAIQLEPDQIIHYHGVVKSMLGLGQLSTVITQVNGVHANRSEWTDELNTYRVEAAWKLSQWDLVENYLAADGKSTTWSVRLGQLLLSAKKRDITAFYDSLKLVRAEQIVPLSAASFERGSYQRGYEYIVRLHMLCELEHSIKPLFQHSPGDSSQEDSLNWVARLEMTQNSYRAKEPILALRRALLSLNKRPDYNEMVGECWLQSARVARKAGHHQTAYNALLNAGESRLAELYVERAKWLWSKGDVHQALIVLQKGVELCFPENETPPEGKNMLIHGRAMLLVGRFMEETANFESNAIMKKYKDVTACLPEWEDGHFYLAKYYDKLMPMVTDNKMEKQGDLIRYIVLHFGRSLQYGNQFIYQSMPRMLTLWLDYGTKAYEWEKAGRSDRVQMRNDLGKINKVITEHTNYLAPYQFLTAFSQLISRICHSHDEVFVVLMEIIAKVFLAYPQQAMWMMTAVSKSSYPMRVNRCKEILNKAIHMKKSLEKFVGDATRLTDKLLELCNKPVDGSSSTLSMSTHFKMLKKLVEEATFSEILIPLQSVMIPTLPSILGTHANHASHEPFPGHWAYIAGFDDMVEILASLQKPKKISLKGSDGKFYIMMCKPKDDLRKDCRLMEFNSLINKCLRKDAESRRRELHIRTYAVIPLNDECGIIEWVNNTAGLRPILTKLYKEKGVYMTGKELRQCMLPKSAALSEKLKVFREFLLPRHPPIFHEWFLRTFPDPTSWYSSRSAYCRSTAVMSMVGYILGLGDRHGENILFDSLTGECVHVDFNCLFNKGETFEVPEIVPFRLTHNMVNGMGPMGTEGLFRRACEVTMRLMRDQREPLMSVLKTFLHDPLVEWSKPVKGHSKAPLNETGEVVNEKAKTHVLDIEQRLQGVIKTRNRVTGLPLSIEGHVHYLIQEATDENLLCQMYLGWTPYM
# Chain of ATR/ATRIP kinase (Q8WXE1 whole entry partner): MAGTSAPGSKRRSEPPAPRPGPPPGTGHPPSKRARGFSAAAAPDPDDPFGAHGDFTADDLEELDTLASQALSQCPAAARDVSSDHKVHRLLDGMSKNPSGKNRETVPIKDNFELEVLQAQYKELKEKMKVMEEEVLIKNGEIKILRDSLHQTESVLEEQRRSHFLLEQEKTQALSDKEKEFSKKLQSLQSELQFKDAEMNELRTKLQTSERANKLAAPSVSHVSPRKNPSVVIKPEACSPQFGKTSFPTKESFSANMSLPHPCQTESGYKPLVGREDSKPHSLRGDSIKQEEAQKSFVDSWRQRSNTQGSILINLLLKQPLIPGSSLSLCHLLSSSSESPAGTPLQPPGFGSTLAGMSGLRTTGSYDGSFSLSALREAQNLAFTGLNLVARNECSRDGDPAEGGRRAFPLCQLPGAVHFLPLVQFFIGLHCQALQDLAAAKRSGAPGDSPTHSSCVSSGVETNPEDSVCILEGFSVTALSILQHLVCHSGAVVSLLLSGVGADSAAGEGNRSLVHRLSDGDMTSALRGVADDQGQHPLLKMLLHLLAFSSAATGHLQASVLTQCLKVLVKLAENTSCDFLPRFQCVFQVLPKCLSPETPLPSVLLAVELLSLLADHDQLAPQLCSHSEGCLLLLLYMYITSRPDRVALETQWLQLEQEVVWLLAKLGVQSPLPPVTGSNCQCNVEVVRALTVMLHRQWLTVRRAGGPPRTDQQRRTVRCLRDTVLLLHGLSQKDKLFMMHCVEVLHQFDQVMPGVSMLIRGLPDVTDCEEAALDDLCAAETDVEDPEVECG
Structure (SMILES),IC50 (CYP3A4; [1]),IC50 (CYP3A4; [2]),IC50 (ATR/ATRIP kinase),IC50 (CYP2D6)
"C[C@@H]1COCCN1c1nc2c(cnn2-c2cc[nH]n2)c2c1ccn2S(C)(=O)=O [Compound 1, (R)-3-methyl-4-(1-(methylsulfonyl)-6-(1H-pyrazol-3-yl)-1,6-dihydropyrazolo[3,4-b]pyrrolo[2,3-d]pyridin-4-yl)morpholine trifluoroacetate]",> 10 µM,> 10 µM,0.0012 µM,> 10 µM
"C[C@@H]1COCCN1c1nc2c(cnn2-c2cc[nH]n2)c2c1CCN2S(C)(=O)=O [Compound 2, (R)-3-methyl-4-(1-(methylsulfonyl)-6-(1H-pyrazol-3-yl)-1,2,3,6-tetrahydropyrazolo[3,4-b]pyrrolo[2,3-d]pyridin-4-yl)morpholine trifluoroacetate]",> 10 µM,> 10 µM,0.00069 µM,> 10 µM
